Assays:
[1] = test system: PC3 cell line; test: Cell viability, PC3; format: cell-based; conditions: 5 and 10 μM, 24 hours
Description: (§1) 5,000 cells/well were seeded in 96 well plates with DMEM containing 2% FBS. The next day piperlongumine was added at various concentrations. […] At 24, 48 and 72 hours the media was removed and replaced with CellTiter-Blue (Promega, 1:20 in media). The plate was incubated for 90 minutes before measuring fluorescence intensity.

[2] = target: TRPC7 (Homo sapiens, UniProt Q9HCX4); test: Fluorescence cell-based assay, TRPC7; conditions: membrane potential dye, spread in log units, duplicate
Description: (§2) The assays were performed at SB Discovery (Glasgow, UK) on a fee-for-service basis. Human TRP cells were trypsinised, counted and seeded in black, clear-bottomed 96 well plates at a density of 50,000 cells per well in 100 μL volume and incubated overnight. Next day, the cells were loaded with calcium 5 dye or membrane potential dye. TRPV1-5, TRPA1, TRPM2, TRPM3, and TRPM8 were tested using the calcium 5 dye. TRPC1, TRPC3-7, and TRPM4-5 were tested using the membrane potential dye. Both dye solutions were made up in HEPES buffered Hank's balanced salt solution (HBSS). Dye solution (90 μL) was added to the wells and incubated at 37° C. for 1 hour. Test compounds and standard inhibitors (10 μL) were then added to the wells and incubated at room temperature for 10 minutes. The plates were then placed in the flexstation and fluorescence monitored every 1.52 seconds. After 20 seconds agonist was added and the fluorescence monitored for 2 minutes at 485 nm/525 nm and 530 nm/565 nm, Ex/Em, for the calcium 5 dye and the membrane potential dye respectively. Controls-TRPV1: capsazepine; TRPV2: tranilast; TRPV3: ruthenium red; TRPV4: ruthenium red; TRPV5: Gd^3+; TRPA1, ruthenium red; TRPC1: Gd^3+; TRPC3: Pyr3; TRPC4: ML 204; TRPC5: ML 204; TRPC6: ML 204; TRPC7: SKF 96365; TRPM2: 2-APB; TRPM3: Mef acid; TRPM4: clotrimazole; TRPM5: TPPO; TRPM8: 2-APB. […]

[3] = test system: chiru TRPV2 orthologue; test: Isothermal titration calorimetry, chiru TRPV2; format: binding; conditions: chiru TRPV2 constructs; 100 μM
[4] = target: T1, TRPV2 (Homo sapiens, UniProt Q9Y5S1); test: Co-incubation experiments with cannabidiol (mode of binding); format: cell-based
T1 sequence (Q9Y5S1 1-764): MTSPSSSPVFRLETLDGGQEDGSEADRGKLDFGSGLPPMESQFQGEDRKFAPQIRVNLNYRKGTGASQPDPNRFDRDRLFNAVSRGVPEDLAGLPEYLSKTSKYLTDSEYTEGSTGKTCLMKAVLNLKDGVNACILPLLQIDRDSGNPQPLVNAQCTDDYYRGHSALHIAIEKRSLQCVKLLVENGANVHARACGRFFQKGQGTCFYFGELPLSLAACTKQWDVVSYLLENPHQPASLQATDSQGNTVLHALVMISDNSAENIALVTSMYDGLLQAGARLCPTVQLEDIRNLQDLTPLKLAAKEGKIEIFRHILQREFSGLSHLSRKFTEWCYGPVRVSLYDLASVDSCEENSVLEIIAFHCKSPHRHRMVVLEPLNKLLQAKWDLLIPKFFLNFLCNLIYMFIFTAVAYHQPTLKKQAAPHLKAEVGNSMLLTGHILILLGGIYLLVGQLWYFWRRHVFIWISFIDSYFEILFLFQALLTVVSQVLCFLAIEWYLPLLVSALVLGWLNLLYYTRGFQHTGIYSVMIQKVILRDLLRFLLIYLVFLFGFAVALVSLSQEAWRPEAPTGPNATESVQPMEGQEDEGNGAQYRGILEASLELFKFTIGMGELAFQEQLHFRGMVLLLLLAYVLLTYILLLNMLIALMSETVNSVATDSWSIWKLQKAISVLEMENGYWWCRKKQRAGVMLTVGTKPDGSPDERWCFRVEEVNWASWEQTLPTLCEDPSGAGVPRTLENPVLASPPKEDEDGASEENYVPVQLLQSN

[5] = test system: HEK293 cells; test: Viability of HEK cells transiently transfected with TRPV2; format: cell-based, human
Description: 75,000 HEK293 cells were seeded in each well of a 24 well plate. The next day cells were transfected with hTRPV2-RFP plasmid (kindly gifted by Prof. Itaru Kojima, Gunma University, Japan). After incubating for 24 hours the media was changed and PL was added at 5 and 10 μM. 24 hours later cell viability was assessed using CellTitre-Blue (Promega) or Annexin V, 7-AAD staining. Transfection efficiency was assessed using flow cytometry.
Cells were harvested from plates by washing with media (HEK293) or TrypLE express (Gibco). The media was removed after centrifugation and the cells were washed twice with binding buffer before being incubated for 30 minutes at room temperature with Annexin V-APC (eBiosciences, 1:100) and 7-AAD (Pharmigen, 1:50). Samples were diluted with binding buffer and analyzed by flow cytometry using BD LSRFortessa X-20 with FACS Diva software. Samples with single stains were used as controls.

[6] = target: TRPC4 (Homo sapiens, UniProt Q9UBN4); test: Fluorescence cell-based assay, TRPC4; conditions: membrane potential dye, duplicate
TRPC4, sequence (Q9UBN4 whole entry): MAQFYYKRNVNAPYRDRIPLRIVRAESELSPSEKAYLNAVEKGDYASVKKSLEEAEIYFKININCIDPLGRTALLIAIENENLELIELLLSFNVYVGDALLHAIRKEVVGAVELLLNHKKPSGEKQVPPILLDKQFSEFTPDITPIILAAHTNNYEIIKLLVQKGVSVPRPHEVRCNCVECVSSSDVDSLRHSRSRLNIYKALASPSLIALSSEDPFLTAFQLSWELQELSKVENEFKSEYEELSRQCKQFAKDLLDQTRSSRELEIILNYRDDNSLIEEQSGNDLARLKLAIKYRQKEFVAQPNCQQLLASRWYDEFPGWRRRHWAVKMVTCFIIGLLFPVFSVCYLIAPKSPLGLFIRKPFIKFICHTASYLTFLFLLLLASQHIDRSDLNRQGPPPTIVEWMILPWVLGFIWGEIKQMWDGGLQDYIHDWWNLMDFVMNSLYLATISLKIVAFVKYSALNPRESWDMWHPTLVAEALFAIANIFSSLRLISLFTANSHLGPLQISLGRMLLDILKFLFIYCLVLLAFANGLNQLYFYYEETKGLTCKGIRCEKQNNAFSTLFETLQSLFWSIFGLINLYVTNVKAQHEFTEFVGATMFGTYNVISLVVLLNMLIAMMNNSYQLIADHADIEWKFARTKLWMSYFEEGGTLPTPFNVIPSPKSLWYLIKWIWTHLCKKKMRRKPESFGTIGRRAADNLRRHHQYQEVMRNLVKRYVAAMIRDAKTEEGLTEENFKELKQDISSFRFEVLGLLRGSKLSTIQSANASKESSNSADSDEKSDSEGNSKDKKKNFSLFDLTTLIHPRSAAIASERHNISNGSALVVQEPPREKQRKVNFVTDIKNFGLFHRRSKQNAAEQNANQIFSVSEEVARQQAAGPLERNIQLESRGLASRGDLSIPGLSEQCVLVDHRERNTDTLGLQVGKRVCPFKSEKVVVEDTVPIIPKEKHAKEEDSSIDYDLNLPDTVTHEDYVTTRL
Description: as §2

[7] = test system: LNCaP cell line; test: Cell viability, LNCaP; format: cell-based; conditions: 5 and 10 μM, 24 hours
Description: as §1

[8] = test system: rabbit TRPV2 orthologue; test: Isothermal titration calorimetry, rabbit TRPV2; format: binding; conditions: rabbit TRPV2 constructs; 100 μM
[9] = target: TRPV4 (Homo sapiens, UniProt Q9HBA0); test: Fluorescence cell-based assay, TRPV4; conditions: calcium 5 dye, duplicate
TRPV4, sequence (Q9HBA0 whole entry): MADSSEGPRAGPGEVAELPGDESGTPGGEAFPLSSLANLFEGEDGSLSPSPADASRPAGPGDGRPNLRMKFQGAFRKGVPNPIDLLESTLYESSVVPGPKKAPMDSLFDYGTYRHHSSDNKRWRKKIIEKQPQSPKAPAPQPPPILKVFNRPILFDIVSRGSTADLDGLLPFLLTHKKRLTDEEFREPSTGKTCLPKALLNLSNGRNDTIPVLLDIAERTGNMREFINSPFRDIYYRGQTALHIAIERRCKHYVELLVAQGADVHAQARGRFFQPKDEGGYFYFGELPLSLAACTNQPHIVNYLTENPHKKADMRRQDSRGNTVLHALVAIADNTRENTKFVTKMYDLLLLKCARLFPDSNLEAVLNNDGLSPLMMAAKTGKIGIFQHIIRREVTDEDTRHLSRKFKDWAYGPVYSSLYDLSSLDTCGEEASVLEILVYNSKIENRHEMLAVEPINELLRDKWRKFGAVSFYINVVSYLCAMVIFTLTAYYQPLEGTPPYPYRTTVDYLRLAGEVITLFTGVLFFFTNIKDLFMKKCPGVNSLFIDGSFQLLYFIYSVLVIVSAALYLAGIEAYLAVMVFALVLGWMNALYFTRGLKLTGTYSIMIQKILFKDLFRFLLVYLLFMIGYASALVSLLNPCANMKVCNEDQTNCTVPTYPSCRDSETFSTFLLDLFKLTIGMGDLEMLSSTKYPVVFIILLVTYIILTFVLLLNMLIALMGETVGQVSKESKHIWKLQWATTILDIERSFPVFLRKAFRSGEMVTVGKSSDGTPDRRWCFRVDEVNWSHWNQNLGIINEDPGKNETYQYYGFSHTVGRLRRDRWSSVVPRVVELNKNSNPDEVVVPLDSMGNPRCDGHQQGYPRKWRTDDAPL
Description: as §2

[10] = target: TRPC6 (Homo sapiens, UniProt Q9Y210); test: Fluorescence cell-based assay, TRPC6; conditions: membrane potential dye, duplicate
TRPC6, sequence (Q9Y210 whole entry): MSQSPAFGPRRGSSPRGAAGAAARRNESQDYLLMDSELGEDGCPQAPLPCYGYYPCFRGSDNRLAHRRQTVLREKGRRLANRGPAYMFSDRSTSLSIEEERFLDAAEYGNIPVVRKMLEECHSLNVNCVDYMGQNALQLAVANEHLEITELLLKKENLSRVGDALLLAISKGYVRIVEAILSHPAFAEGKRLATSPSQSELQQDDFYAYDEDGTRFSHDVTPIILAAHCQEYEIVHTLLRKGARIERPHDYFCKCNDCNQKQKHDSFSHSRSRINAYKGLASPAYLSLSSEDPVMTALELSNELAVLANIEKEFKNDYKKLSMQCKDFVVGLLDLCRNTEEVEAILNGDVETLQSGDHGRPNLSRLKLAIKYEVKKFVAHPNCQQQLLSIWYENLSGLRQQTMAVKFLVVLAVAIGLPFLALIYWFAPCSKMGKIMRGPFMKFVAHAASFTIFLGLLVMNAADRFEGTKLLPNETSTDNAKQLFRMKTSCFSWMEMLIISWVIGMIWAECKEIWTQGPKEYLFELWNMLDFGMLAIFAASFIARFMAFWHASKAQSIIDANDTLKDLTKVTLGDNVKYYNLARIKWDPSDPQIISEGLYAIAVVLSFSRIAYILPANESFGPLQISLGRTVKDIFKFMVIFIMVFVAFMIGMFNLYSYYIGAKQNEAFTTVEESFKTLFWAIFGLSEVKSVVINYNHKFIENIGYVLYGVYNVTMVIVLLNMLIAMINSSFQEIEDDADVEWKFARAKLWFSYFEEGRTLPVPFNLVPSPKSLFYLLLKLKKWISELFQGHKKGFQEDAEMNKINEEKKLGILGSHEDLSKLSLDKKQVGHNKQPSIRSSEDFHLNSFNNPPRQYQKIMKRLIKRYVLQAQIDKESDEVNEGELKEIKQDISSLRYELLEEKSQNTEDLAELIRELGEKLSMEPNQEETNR
Description: as §2

[11] = target: TRPM2 (Homo sapiens, UniProt O94759); test: Fluorescence cell-based assay, TRPM2; conditions: calcium 5 dye, duplicate
TRPM2, sequence (O94759 whole entry): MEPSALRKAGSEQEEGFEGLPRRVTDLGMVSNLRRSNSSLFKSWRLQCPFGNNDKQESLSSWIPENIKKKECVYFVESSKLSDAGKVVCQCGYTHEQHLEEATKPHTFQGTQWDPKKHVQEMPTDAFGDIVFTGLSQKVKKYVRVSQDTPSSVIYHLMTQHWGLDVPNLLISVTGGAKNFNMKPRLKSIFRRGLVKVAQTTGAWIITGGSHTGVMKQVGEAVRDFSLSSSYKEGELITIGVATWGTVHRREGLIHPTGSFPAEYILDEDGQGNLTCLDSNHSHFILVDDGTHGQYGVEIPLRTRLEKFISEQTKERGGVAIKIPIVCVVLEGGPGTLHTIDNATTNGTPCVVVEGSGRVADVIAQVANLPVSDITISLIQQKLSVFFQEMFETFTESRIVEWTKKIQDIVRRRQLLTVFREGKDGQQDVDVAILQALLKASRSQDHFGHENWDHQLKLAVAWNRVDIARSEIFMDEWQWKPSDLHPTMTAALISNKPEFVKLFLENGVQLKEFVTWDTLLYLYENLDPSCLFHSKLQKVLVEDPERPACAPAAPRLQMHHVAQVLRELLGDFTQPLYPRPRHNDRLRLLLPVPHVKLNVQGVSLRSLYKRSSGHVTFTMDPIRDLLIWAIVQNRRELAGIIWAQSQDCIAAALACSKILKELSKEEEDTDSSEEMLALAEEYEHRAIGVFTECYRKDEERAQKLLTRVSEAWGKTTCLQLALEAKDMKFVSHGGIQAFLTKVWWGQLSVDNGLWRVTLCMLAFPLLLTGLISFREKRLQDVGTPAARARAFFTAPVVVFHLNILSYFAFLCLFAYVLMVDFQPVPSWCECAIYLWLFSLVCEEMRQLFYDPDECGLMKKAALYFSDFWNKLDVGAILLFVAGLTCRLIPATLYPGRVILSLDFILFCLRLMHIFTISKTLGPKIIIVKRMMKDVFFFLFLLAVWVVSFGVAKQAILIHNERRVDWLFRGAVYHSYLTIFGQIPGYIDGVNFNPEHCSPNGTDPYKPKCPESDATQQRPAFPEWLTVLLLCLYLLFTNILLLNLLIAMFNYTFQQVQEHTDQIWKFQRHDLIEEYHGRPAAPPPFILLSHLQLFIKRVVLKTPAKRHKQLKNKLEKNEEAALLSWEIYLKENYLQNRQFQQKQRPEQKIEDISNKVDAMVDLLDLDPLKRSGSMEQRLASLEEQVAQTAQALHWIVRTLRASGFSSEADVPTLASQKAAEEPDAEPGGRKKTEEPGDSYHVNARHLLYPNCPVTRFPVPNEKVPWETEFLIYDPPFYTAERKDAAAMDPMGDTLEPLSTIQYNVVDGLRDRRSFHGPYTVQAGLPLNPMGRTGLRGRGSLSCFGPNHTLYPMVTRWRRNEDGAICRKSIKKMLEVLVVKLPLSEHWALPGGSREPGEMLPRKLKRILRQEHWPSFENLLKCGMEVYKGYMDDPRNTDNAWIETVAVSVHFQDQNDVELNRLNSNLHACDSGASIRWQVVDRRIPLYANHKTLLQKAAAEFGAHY
Description: as §2

[12] = target: TRPM3 (Homo sapiens, UniProt Q9HCF6); test: Fluorescence cell-based assay, TRPM3; conditions: calcium 5 dye, duplicate
Description: as §2

[13] = target: T1, TRPV2; test: Fluorescence cell-based assay, TRPV2 (cannabidiol-evoked calcium influx); conditions: TRPV2
Description: The assays were performed at SB Discovery (Glasgow, UK) on a fee-for-service basis. Human TRP cells were trypsinised, counted and seeded in black, clear-bottomed 96 well plates at a density of 50,000 cells per well in 100 μL volume and incubated overnight. Next day, the cells were loaded with calcium 5 dye or membrane potential dye. TRPV1-5, TRPA1, TRPM2, TRPM3, and TRPM8 were tested using the calcium 5 dye. TRPC1, TRPC3-7, and TRPM4-5 were tested using the membrane potential dye. Both dye solutions were made up in HEPES buffered Hank's balanced salt solution (HBSS). Dye solution (90 μL) was added to the wells and incubated at 37° C. for 1 hour. Test compounds and standard inhibitors (10 μL) were then added to the wells and incubated at room temperature for 10 minutes. The plates were then placed in the flexstation and fluorescence monitored every 1.52 seconds. After 20 seconds agonist was added and the fluorescence monitored for 2 minutes at 485 nm/525 nm and 530 nm/565 nm, Ex/Em, for the calcium 5 dye and the membrane potential dye respectively. Controls-TRPV1: capsazepine; TRPV2: tranilast; TRPV3: ruthenium red; TRPV4: ruthenium red; TRPV5: Gd^3+; TRPA1, ruthenium red; TRPC1: Gd^3+; TRPC3: Pyr3; TRPC4: ML 204; TRPC5: ML 204; TRPC6: ML 204; TRPC7: SKF 96365; TRPM2: 2-APB; TRPM3: Mef acid; TRPM4: clotrimazole; TRPM5: TPPO; TRPM8: 2-APB. Control data was in all cases within historical range.

Compound: COc1cc(/C=C/C(=O)N2CCC=CC2=O)cc(OC)c1OC [Compound 1, piperlongumine]
- Cell viability [1]: cell viability was compromised
- IC50 [2]: 64 ± 0.06 µM
- Binding by isothermal titration calorimetry [3]: did not bind
- Mode of antagonism ([4]; EC50 curves of cannabidiol with increasing concentrations of 1): non-competitive (allosteric) antagonism
- Concentration of 1 above which apparent vmax of cannabidiol is reduced ([4]; Michaelis-Menten analysis): higher than 5 pM
- Viability of TRPV2-transfected cells vs non-transfected controls [5]: identical result
- IC50 [6]: > 100 µM
- Cell viability [7]: cell viability was compromised
- Binding by isothermal titration calorimetry [8]: did not bind
- IC50 [9]: > 100 µM
- IC50 [10]: > 100 µM
- IC50 [11]: > 100 µM
- IC50 [12]: > 100 µM
- Ligand Efficiency [13]: 0.32
- IC50 ([13]; calcium 5 dye, spread in log units, duplicate, read-out: IC50/μM ± SD): 4.6 µM
